The numbers were not newly measured in US6867034B2, “Methods of screening novel agents for use in cancer therapy and prevention” (The Curators of The University of Missouri, priority 2000, dated 2005), which cites them from elsewhere.

One data set concerns repD. Particulars: after cisplatin treatment, versus basal levels.
A further data set deals with Dictyostelium cells. The following applies: 300 μM cisplatin.
In another data set the test system is repB. The following applies: after cisplatin treatment, versus basal levels.

Turning to `N.N.[Cl][Pt][Cl]` [cisplatin], in the data set with repD, the “levels of repD mRNA” value is reported as “rapidly increase from basal levels”. Further, the “viability of the cells” value with Dictyostelium cells is “reduced by three orders of magnitude”. Besides, the “levels of repB mRNA” value with repB is recorded as “rapidly increase from basal levels”.
